Measured values: patent US20060258754A1, “Method of treating endothelial dysfunction, oxidative stress and related diseases” (priority 2004, published 2006)
“Also recorded” adds a separate entry of the source.

How the values were obtained:
diabetic aortic rings = test: NO-induced relaxation in diabetic aortic rings contracted with phenylephrine; details: 0.1 μM phenylephrine, inositol 10 μM, 1 hour, FIG. 14
Experimental: NO action was investigated in aortic rings and RbCC. […] The data in FIGS. 14 are expressed as mean±SEM of 5 experimental units. * p<0.05, ANOVA followed by Tukey-Kramer, diab (C) vs. Inositol treated. # p<0.05, ANOVA followed by Tukey-Kramer, Eugly vs. Inositol treated. In FIG. 14, Veh=vehicle; C=diabetic control; Diab=diabetic control; Eugly=euglycemic tissue. Relaxation was restored toward or to normal by incubation with inositols.

[1] = system: renal vascular bed of perfused kidneys; test: Acute perfusion of diabetic rabbit kidneys: acetylcholine-induced decrease in perfusion pressure; parameters: species or system alloxan-diabetic rabbits; details: 3-week diabetic rabbit kidneys; for restoration of vasorelaxant effect of acetylcholine, DCI versus db-DCI: repeated perfusion experiment, 1 μM; for restoration of endothelial function (acetylcholine induced decrease in perfusion pressure): perfusion with 1 μM, first experiment
Experimental: (§1) Male California rabbits, weighing 2-2.5 kg, were provided by the vivarium of the Biomedicine Institute-UFC. Diabetes was induced by intraperitoneal injection of alloxan (150 mg/kg) and only animals with plasma glucose concentration above 200 mg/dl were included in the study. Age-matched euglycemic rabbits were used as controls.
Kidneys and aortic rings are harvested from diabetic rabbits after 3 weeks of alloxan injection. They are perfused with KHS containing 1 μM D-chiro-inositol, pinitol, dibutyryl D-chiro-inositol, myo-inositol or saline for 1 hour. Dose response curves for acetylcholine are then performed following prior phenylephrine vasoconstriction as described. At least 6 separate experiments will be performed each in duplicate.
Kidneys and aortic rings were harvested from diabetic rabbits after 3 weeks of alloxan injection. The animals were sacrificed under sodium pentobarbital anesthesia (Hypnol®, 150-200 mg/kg). […]. Rabbit kidneys were obtained from male New Zealand rabbits (1-1.5 kg) after cannulation of the renal artery in situ. [Thereafter the organ is rapidly perfused with warm KHS at 37° C., pH 7.4 and gassed with 95% O2 in 5% CO2 in an open system with a constant flow adjusted to yield 1 mL/g/min and maintained by a peristaltic pump. The alterations in perfusion pressure are continuously recorded in a four-channel polygraph (Narco Biosystems, Houston, Tex., USA) by means of a pressure transducer (P23 Gould Stratham, Oxnard, Calif., USA). After a 30 minute equilibration period, phenylephrine (1 to 5 μM) is infused by means of an infusion pump at a constant rate (0.1 ml/min) in order to achieve a stable perfusion pressure (100-120 mm Hg). Concentration-response curves are performed to the vasodilators, i.e. acetylcholine (Ach; 10^-9 to 10^-3 M). Drugs are injected as a 50 μL bolus, previously shown not to effect perfusion pressure in an arm side just above the cannula in the renal artery.] Following penectomy, the corpus cavernosum was dissected in Krebs solution and cleared of the tunica albuginea and surrounding tissues. Strips (2 cm) were mounted vertically in isometric baths (5 mL) in Krebs-Henseleit solution (37° C., pH 7.4 gassed with 95% O2 in 5% CO2) enriched with indomethecin (10 μM) and guanethedine (10 μM) in order to avoid prostanoid or neuronal norandrenergic interaction. After a 60 minute period for stabilization, tissues were precontracted with 10 μM phenylephrine in order to increase the basal tonus. Thereafter, frequency response curves to transmural electrical field stimulations (EFS—square wave pulses: 10 s train; 20 V, 0.5 ms, 2-16 Hz) were performed until two stable reproducible curves were attained. […]

penile corpus cavernosus = test: Rabbit penile corpus cavernosus: relaxation to electrical field stimulation after 60 min incubation; parameters: species or system low dose alloxan-diabetic rabbit; details: 1 μM; for restoration of vasorelaxant effect of electrical stimulation of the pudendal nerve: EFS 2-16 Hz, FIG. 8
Experimental: as §1
Kidneys and aortic rings were harvested from diabetic rabbits after 3 weeks of alloxan injection. The animals were sacrificed under sodium pentobarbital anesthesia (Hypnol®, 150-200 mg/kg). […]. Rabbit kidneys were obtained from male New Zealand rabbits (1-1.5 kg) after cannulation of the renal artery in situ. [Thereafter the organ is rapidly perfused with warm KHS at 37° C., pH 7.4 and gassed with 95% O2 in 5% CO2 in an open system with a constant flow adjusted to yield 1 mL/g/min and maintained by a peristaltic pump. The alterations in perfusion pressure are continuously recorded in a four-channel polygraph (Narco Biosystems, Houston, Tex., USA) by means of a pressure transducer (P23 Gould Stratham, Oxnard, Calif., USA). After a 30 minute equilibration period, phenylephrine (1 to 5 μM) is infused by means of an infusion pump at a constant rate (0.1 ml/min) in order to achieve a stable perfusion pressure (100-120 mm Hg). Concentration-response curves are performed to the vasodilators, i.e. acetylcholine (Ach; 10^-9 to 10^-3 M). Drugs are injected as a 50 μL bolus, previously shown not to effect perfusion pressure in an arm side just above the cannula in the renal artery.] Following penectomy, the corpus cavernosum was dissected in Krebs solution and cleared of the tunica albuginea and surrounding tissues. Strips (2 cm) were mounted vertically in isometric baths (5 mL) in Krebs-Henseleit solution (37° C., pH 7.4 gassed with 95% O2 in 5% CO2) enriched with indomethecin (10 μM) and guanethedine (10 μM) in order to avoid prostanoid or neuronal norandrenergic interaction. After a 60 minute period for stabilization, tissues were precontracted with 10 μM phenylephrine in order to increase the basal tonus. Thereafter, frequency response curves to transmural electrical field stimulations (EFS—square wave pulses: 10 s train; 20 V, 0.5 ms, 2-16 Hz) were performed until two stable reproducible curves were attained. Then, frequency response curves were repeated after 60 min incubation with saline or 1 μM pinitol, DCI or db-DCI in the alloxan-diabetic rabbits. They are perfused with KHS containing 1 μM D-chiro-inositol, pinitol, dibutyryl D-chiro-inositol, myo-inositol or saline for 60 min. Dose response curves for acetylcholine are then performed following prior phenylephrine vasoconstriction as described. At least 6 separate experiments were performed each in duplicate.

[2] = system: bovine aortic endothelial cells; test: Superoxide assay in cells: ROS in high glucose (CM-H2DCFDA); format: cell-based; details: for reduction of ROS in cells: 30 mM glucose (ROS increased 2 fold vs 5 mM), 20, 50, 100 μM, FIG. 9; for maximal concentration for ROS reduction: 30 mM glucose, tested 20, 50, 100 μM
Experimental: Bovine aortic endothelial cells were incubated in 5 mM (control) or 30 mM (hyperglycemic) glucose for 2 hours and reactive oxygen species (ROS) determined fluorometrically using the probe CM-H2DCFDA as described by Brownlee et al. Cells were loaded with 10 μM CM-H2DCFDDA, incubated for 45 min at 37°, and then analyzed in an HTS 7000 Bio assay Fluorescent Plate Reader using HT software. ROS production is reported as nmol/mL based on a standard curve produced with H2O2.

vascular mesenteric bed = test: Rat arteriolar mesenteric bed: acetylcholine-evoked decrease in perfusion pressure after 4-week oral treatment; format: in vivo, alloxan-diabetic male Wistar rats; details: for effect on microvascular endothelial dysfunction: chronic (4-week) oral administration, highest acetyl choline concentrations, FIG. 4
Experimental: Male Wistar rats, weighing between 230-250 g, fed regular chow, with free access to water were separated in four groups (n=10/each). The first two groups, termed normoglycemic, were treated with saline (0.1 mL/100 g/12 h) by the oral route (intragastric gavage) or untreated for four weeks. The second two groups, hyperglycemic, were treated with saline (0.1 mL/100 g/12 h) or treated with D-chiro-inositol (20 mg/kg/12 h) under the same protocol. […] Diabetes was induced by a single intravenous injection of 45 mg/kg alloxan as described by Sannomiya et al., 1997 ( ). Diabetes was diagnosed 96 h after injection by blood glucose assay >200 mg/dL. All protocols were approved by the local committee and follow the Guide for the Care and Use of Laboratory Animals published by the US National Institutes of Health (NIH Publication No. 85-23, revised 1996).
The mesentery was carefully removed by cutting close to the intestinal border with a small scissors. […] The vascular bed was rapidly perfused with warm KHS (37° C.; pH 7.4; gassed with 95% O2 in 5% CO2) in an open system with a constant flow of 4 ml/min maintained with a peristaltic pump. Alterations in perfusion pressure were continuously recorded in a four-channel polygraph (Narco Biosystems, Houston, Tex., USA) by means of a pressure transducer (P23 Gould Stratham, Oxnard, Calif., USA). After a 30 minute equilibration period, phenylephrine (1 to 5 μM) was infused by means of an infusion pump at a constant rate (0.1 ml/min) in order to achieve a stable perfusion pressure (100-120 mm Hg). Dose response curves were performed with vasodilators, i.e. acetylcholine (Ach; 10^-9 to 10^-3 M). Drugs were injected as 50 μL boluses, previously shown not to effect perfusion pressure in a side arm just above the cannula in the mesenteric artery. At least 6 separate experiments were performed each in duplicate.

[3] = listed as dibutyryl D-chiro-inositol

Structure (SMILES) | relaxation to added NO (diabetic aortic rings) | restoration of vasorelaxant effect of acetylcholine, DCI versus db-DCI [1] | restoration of vasorelaxant effect of electrical stimulation of the pudendal nerve (penile corpus cavernosus) | reduction of ROS in cells [2] | reduction of ROS in cells ([2]; listed as D-chiro-inositol) | maximal concentration for ROS reduction [2] [µM] | effect on microvascular endothelial dysfunction (vascular mesenteric bed) | effect on microvascular endothelial dysfunction (vascular mesenteric bed; listed as D-chiro-inositol) | maximal decrease in perfusion pressure to acetylcholine (vascular mesenteric bed; tissues from alloxan-diabetic rats treated with D-chiro-inositol 20 mg/kg/12 h by gavage for 4 weeks, saline-treated diabetic 23±5%, normoglycemic 61±3.7%) [%] | restoration of endothelial function (acetylcholine induced decrease in perfusion pressure) ([1]; listed as db-DCI) | restoration of endothelial function (acetylcholine induced decrease in perfusion pressure) [1, 3] | restoration of vasorelaxant effect at EFS of 4 Hz (penile corpus cavernosus; EFS 4 Hz) | reduction of ROS in cells ([2]; listed as Dibutyryl-DCI) | effect on microvascular endothelial dysfunction (vascular mesenteric bed; [3])
OC1C(O)C(O)C(O)C(O)C1O [DCI, D-chiro-inositol] | restored relaxation to normal | partially restored | restoration of vasorelaxant effect | reduced back to basal concentrations in a dose dependant manner | reduced to basal concentrations in a dose dependent manner | 50 | approximately equally effective | effective | 52±6 | – | – | – | – | –
CCCC(=O)O[C@@H]1[C@@H](O)[C@@H](O)[C@H](O)[C@H](O)[C@H]1OC(=O)CCC [dbDCI, 3,4-dibutyryl-D-chiroinositol] | restored relaxation to normal | partially restored | restoration of vasorelaxant effect; also recorded: greatest effect at all levels of electrical stimulation | reduced back to basal concentrations in a dose dependant manner | – | 20 | perhaps slightly better than pinitol and DCI | – | – | completely restored endothelial function | restored to normal | Almost complete restoration | greater effect of reducing ROS than DCI at lower concentrations | perhaps slightly better than pinitol and D-chiro-inositol
